From patent publication US20220125051A1, “PRE-HARVEST DESICCATION METHOD” (SYNGENTA CROP PROTECTION AG, priority 2019, published 2022)

Experiments:
Assay in all cases: Post-emergence efficacy, Method A
Format in all cases: in vivo
[1] = test system: Euphorbia heterophylla (EPHHL); conditions: Application rate 500 g/Ha, evaluated after 13 days, 100=total damage to plant, 0=no damage to plant; for pest or weed control at 500 g/ha: Euphorbia heterophylla, post-emergence, 312 h, read-out: Control of weed species after post-emergence application, EPHHL
How it was run: (§1)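 Visual damage score, 0 (no damage) to 100 (total), taken 13 d after spraying. Pot-grown plants at 14 d post-sowing received an aqueous spray from a 50 g/l acetone/IF50 solution diluted in 0.25% or 1% Empicol ESC70 + 1% ammonium sulphate; glasshouse 24/16 °C, 14 h light, 65% RH, watered twice daily.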

Lolium perenne (LOLPE) = conditions: Application rate 500 g/Ha, evaluated after 13 days, 100=total damage to plant, 0=no damage to plant; for pest or weed control at 500 g/ha: Lolium perenne, post-emergence, 312 h, read-out: Control of weed species after post-emergence application, LOLPE
How it was run: as §1

[2] = test system: Ipomoea hederacea (IPOHE); conditions: Application rate 500 g/Ha, evaluated after 13 days, 100=total damage to plant, 0=no damage to plant; for pest or weed control at 500 g/ha: Ipomoea hederacea, post-emergence, 312 h, read-out: Control of weed species after post-emergence application, IPOHE
How it was run: as §1

[3] = test system: Amaranthus palmeri (AMAPA); conditions: Application rate 500 g/Ha, evaluated after 13 days, 100=total damage to plant, 0=no damage to plant; for pest or weed control at 500 g/ha: Amaranthus palmeri, post-emergence, 312 h, read-out: Control of weed species after post-emergence application, AMAPA
How it was run: as §1

[4] = test system: Chenopodium album (CHEAL); conditions: Application rate 500 g/Ha, evaluated after 13 days, 100=total damage to plant, 0=no damage to plant; for pest or weed control at 500 g/ha: Chenopodium album, post-emergence, 312 h, read-out: Control of weed species after post-emergence application, CHEAL
How it was run: as §1

Setaria faberi (SETFA) = conditions: Application rate 500 g/Ha, evaluated after 13 days, 100=total damage to plant, 0=no damage to plant; for pest or weed control at 500 g/ha: Setaria faberi, post-emergence, 312 h, read-out: Control of weed species after post-emergence application, SETFA
How it was run: as §1

Eleusine indica (ELEIN) = conditions: Application rate 500 g/Ha, evaluated after 13 days, 100=total damage to plant, 0=no damage to plant; for pest or weed control at 500 g/ha: Eleusine indica, post-emergence, 312 h, read-out: Control of weed species after post-emergence application, ELEIN
How it was run: as §1

[5] = test system: Echinochloa crus-galli (ECHCG); conditions: Application rate 500 g/Ha, evaluated after 13 days, 100=total damage to plant, 0=no damage to plant; for pest or weed control at 500 g/ha: Echinochloa crus-galli, post-emergence, 312 h, read-out: Control of weed species after post-emergence application, ECHCG
How it was run: as §1

[6] = test system: Digitaria sanguinalis (DIGSA); conditions: Application rate 500 g/Ha, evaluated after 13 days, 100=total damage to plant, 0=no damage to plant; for pest or weed control at 500 g/ha: Digitaria sanguinalis, post-emergence, 312 h, read-out: Control of weed species after post-emergence application, DIGSA
How it was run: as §1

Row | Compound | pest or weed control at 500 g/ha [1] [%] | pest or weed control at 500 g/ha (Lolium perenne (LOLPE)) [%] | pest or weed control at 500 g/ha [2] [%] | pest or weed control at 500 g/ha [3] [%] | pest or weed control at 500 g/ha [4] [%] | pest or weed control at 500 g/ha (Setaria faberi (SETFA)) [%] | pest or weed control at 500 g/ha (Eleusine indica (ELEIN)) [%] | pest or weed control at 500 g/ha [5] [%] | pest or weed control at 500 g/ha [6] [%] | Control of weed species after post-emergence application, AMAPA [3] | Control of weed species after post-emergence application, EPHHL [1] | Control of weed species after post-emergence application, LOLPE (Lolium perenne (LOLPE)) | Control of weed species after post-emergence application, IPOHE [2] | Control of weed species after post-emergence application, CHEAL [4] | Control of weed species after post-emergence application, SETFA (Setaria faberi (SETFA)) | Control of weed species after post-emergence application, ELEIN (Eleusine indica (ELEIN)) | Control of weed species after post-emergence application, ECHCG [5] | Control of weed species after post-emergence application, DIGSA [6]
1 | CC(C)(C[n+]1ccc(-c2ncccn2)cn1)S(=O)(=O)[O-] [Compound A114, 2-methyl-1-(4-pyrimidin-2-ylpyridazin-1-ium-1-yl)propane-2-sulfonate] | 80 | 70 | 60 | 100 | 60 | 40 | 90 | 60 | 80 | – | – | – | – | – | – | – | – | –
2 | COc1ccc(-c2cc[n+](CCCS(=O)(=O)[O-])nc2)nn1 [Compound A115] | 30 | 30 | 40 | 100 | 100 | 60 | 30 | 50 | 30 | – | – | – | – | – | – | – | – | –
3 | O=c1cc(-c2cc[n+](CCCS(=O)(=O)[O-])nc2)nc[nH]1 [Compound A116] | 50 | 10 | 10 | 100 | 80 | 30 | 20 | 20 | 30 | – | – | – | – | – | – | – | – | –
4 | Cc1cc(-c2cc[n+](CCS(=O)(=O)[O-])nc2)ncn1 [Compound A117] | 100 | 50 | 80 | 90 | 90 | 100 | 90 | 90 | 70 | – | – | – | – | – | – | – | – | –
5 | O=C(O)CC[n+]1ccc(-c2ccnc(C(F)(F)F)n2)cn1 [Compound A118] | 90 | 90 | 60 | 80 | 80 | 70 | 70 | 40 | 90 | – | – | – | – | – | – | – | – | –
6 | O=C(O)CC[n+]1ccc(-c2cc(C(F)(F)F)ncn2)cn1 [Compound A119] | 70 | 30 | 50 | 100 | 100 | 40 | 30 | 30 | 40 | – | – | – | – | – | – | – | – | –
7 | O=C(O)CC[n+]1ccc(-c2cncc(C(F)(F)F)n2)cn1 [Compound A120] | 50 | 20 | 10 | 90 | 70 | 40 | 30 | 40 | 40 | – | – | – | – | – | – | – | – | –
8 | O=C(O)CC[n+]1ccc(-c2cnc(C(F)(F)F)cn2)cn1 [Compound A121] | 80 | 30 | 20 | 100 | 80 | 30 | 20 | 40 | 40 | – | – | – | – | – | – | – | – | –
9 | O=S(=O)([O-])CC[n+]1ccc(-c2ccc(C(F)(F)F)nn2)cn1 [Compound A122] | 100 | 70 | 70 | 100 | 100 | 60 | 90 | 40 | 40 | – | – | – | – | – | – | – | – | –
10 | CCOP(=O)(CC[n+]1ccc(-c2ncccn2)cn1)OCC [Compound A124, 1-(2-diethoxyphosphorylethyl)-4-pyrimidin-2-yl-pyridazin-1-ium] | 0 | 0 | 0 | 0 | 0 | 20 | 0 | 0 | 10 | – | – | – | – | – | – | – | – | –
11 | O=C(O)CC[n+]1ccc(-c2ccc(C(F)(F)F)nn2)cn1 [Compound A126] | 100 | 70 | 30 | 100 | 80 | 100 | 90 | 80 | 80 | – | – | – | – | – | – | – | – | –
12 | O=C(O)CC[n+]1ccc(-c2nccc(=O)[nH]2)cn1 [Compound A127] | 20 | 10 | 10 | 10 | 20 | 30 | 20 | 40 | 80 | – | – | – | – | – | – | – | – | –
13 | O=C(O)CC[n+]1ccc(-c2ncccc2C(F)(F)F)cn1 [Compound A128] | 0 | 40 | 0 | 30 | 10 | 30 | 50 | 30 | 30 | – | – | – | – | – | – | – | – | –
14 | O=C(O)CC[n+]1ccc(-c2ncc(C(F)(F)F)cn2)cn1 [Compound A129] | 70 | 80 | 10 | 70 | 50 | 60 | 40 | 90 | 60 | – | – | – | – | – | – | – | – | –
15 | Cc1n[n+](CCC(=O)O)ccc1-c1ncccn1.O=C([O-])C(F)(F)F [Compound A132] | 30 | 50 | 10 | – | 30 | 100 | 90 | 70 | 90 | 90 | – | – | – | – | – | – | – | –
16 | Cc1n[n+](CCC(=O)O)ccc1-c1ncccn1.[Cl-] [Compound A133] | – | – | – | – | – | – | – | – | – | 60 | 20 | 40 | 20 | 40 | 90 | 90 | 70 | 70
17 | Cc1cnc(-c2cc[n+](CCS(=O)(=O)[O-])nc2)c(F)c1 [Compound A135] | 50 | 60 | 30 | 60 | 20 | 50 | 70 | 50 | 30 | – | – | – | – | – | – | – | – | –
18 | Cc1cnc(-c2cc[n+](CCS(=O)(=O)[O-])nc2)c(Cl)c1 [Compound A136] | 30 | 20 | 30 | 60 | 30 | 70 | 50 | 40 | 60 | – | – | – | – | – | – | – | – | –
